Source: ChEMBL document CHEMBL5096164, “In Vivo Profiling of a Natural Alkaloid, Anatabine, in Rodents: Pharmacokinetics and Anti-Inflammatory Efficacy” (J Nat Prod, 2021)
Active and inactive are the calls of the source. The rule behind the calls is not given here.

Experiments:
[1] = species on record: Mus musculus; experiment: Antiinflammatory activity in MOG (35 to 55 residues)-induced experimental autoimmune encephalomyelitis mouse aerosol assessed as attenuation of body weight loss at 50 microg/L; assay type: functional, organism-based; details: dose 50.0 µg/L
[2] = system: Rattus norvegicus; experiment: Antiinflammatory activity in carrageenan-induced paw edema rat model assessed as inhibition of paw swelling at 5.34 mg/kg via inhalation measured at 2 hrs relative to control; assay type: functional; set-up: scale not given: the % may be the effect or the level left; details: route inh
[3] = system: Rattus norvegicus; experiment: Antiinflammatory activity in carrageenan-induced paw edema rat model assessed as inhibition of paw swelling at 5 mg/kg, ip measured at 2 hrs relative to control; assay type: functional; set-up: scale not given: the % may be the effect or the level left
[4] = system: Mus musculus; experiment: Antiinflammatory activity LPS induced mouse model assessed as reduction in IL-6 level in plasma at 5 mg/kg, ip preincubated for 1 hr followed by LPS stimulation and measured after 2 hrs by ELISA method relative to control; assay type: functional; set-up: scale not given: the % may be the effect or the level left
[5] = system: Mus musculus; experiment: Antiinflammatory activity in ip induced Wistar mouse model of carrageenan-induced paw edema assessed as reduction in paw thickness administered 10 mins prior to carrageenan induction and measured upto 5 hrs; assay type: functional, organism-based; details: dose 1-5 mg/kg, time 310.0 min, DDE = dose-dependent effect
[6] = Antiinflammatory activity in MOG (35 to 55 residues)-induced experimental autoimmune encephalomyelitis mouse aerosol assessed as reduction in clinical score at 25 microg/L measured on 16 day (reference value: 2.0); assay type: ADME; details: inhaled_or_intranasal, 384 h, dose 25 µg/L
[7] = Clearance in Wistar rat plasma at 1 mg/kg, iv administered as bolus dose measured after 5 to 360 mins by LC-MS/MS analysis; assay type: ADME, organism-based; details: in vivo, time 5-360 min
[8] = system: Mus musculus; experiment: Antiinflammatory activity LPS induced mouse model assessed as reduction in macrophage inflammatory protein-1alpha at 1 to 5 mg/kg, ip preincubated for 1 hr followed by LPS stimulation and measured after 2 hrs by luminex xMAP bead based assay; assay type: functional, organism-based; details: dose 1-5 mg/kg, time 3.0 hrs
[9] = AUC in C57BL/6 plasma at 2 mg/kg, ip measured after 3 to 240 mins by LC-MS/MS analysis; assay type: ADME, organism-based; set-up: time 3-240 min, dose 2 mg/kg, route ip; details: C57BL/6, mouse
[10] = Drug uptake in rat aerosol at 261.4 microg/L via inhalation measured for 30 mins; assay type: ADME; details: in vivo, inhaled_or_intranasal, 0.5 h, dose 261.4 µg/L
[11] = system: Mus musculus; experiment: Antiinflammatory activity LPS induced mouse model assessed as reduction in macrophage inflammatory protein-1 beta at 1 to 5 mg/kg, ip preincubated for 1 hr followed by LPS stimulation and measured after 2 hrs by luminex xMAP bead based assay; assay type: functional, organism-based; details: dose 1-5 mg/kg, time 3.0 hrs
[12] = Tmax in C57BL/6 brain at 2 mg/kg, ip measured after 3 to 240 mins by LC-MS/MS analysis; assay type: ADME, organism-based; details: C57BL/6, mouse, time 3-240 min
[13] = Tmax in C57BL/6 plasma at 2 mg/kg, ip measured after 3 to 240 mins by LC-MS/MS analysis; assay type: ADME, organism-based; details: C57BL/6, mouse, time 3-240 min
[14] = Half life in rat at 2.73 mg/kg via inhalation; assay type: ADME, organism-based; details: in vivo, inhaled or intranasal, route inh
[15] = Volume of distribution at steady state in Wistar rat plasma at 1 mg/kg, iv administered as bolus dose measured after 5 to 360 mins by LC-MS/MS analysis; assay type: ADME, organism-based; details: time 5-360 min, read-out: Vdss
[16] = AUC in rat at 2.73 mg/kg via inhalation; assay type: ADME, organism-based; set-up: dose 2.73 mg/kg, route inh; details: in vivo, inhaled or intranasal
[17] = Cmax in Wistar rat plasma at 5 mg/kg, ip administered as bolus dose measured after 5 to 360 mins by LC-MS/MS analysis; assay type: ADME, organism-based; set-up: dose 5 mg/kg, time upper 360 min, time lower 5 min, route ip
[18] = Drug concentration in carrageenan-induced paw edema in rat respiratory tract at 77.9 microg/L via inhalation measured for 30 mins; assay type: ADME; details: inhaled or intranasal, route inh, dose 77.9 µg/L, read-out: Drug uptake
[19] = system: Rattus norvegicus; experiment: Antiinflammatory activity in carrageenan-induced paw edema rat model assessed as recovery of adverse effect at hypothermia at 5 mg/kg, ip or 20 mg/kg administered daily via whole body inhalation; assay type: functional, organism-based
[20] = Cmax in C57BL/6 plasma at 2 mg/kg, ip measured after 3 to 240 mins by LC-MS/MS analysis; assay type: ADME, organism-based; set-up: time 3-240 min, dose 2 mg/kg, route ip; details: C57BL/6, mouse
[21] = Half life in Wistar rat plasma at 2 mg/kg, iv administered as bolus dose measured after 5 to 360 mins by LC-MS/MS analysis; assay type: ADME, organism-based; details: time 5-360 min
[22] = Drug uptake in MOG (35 to 55 residues)-induced experimental autoimmune encephalomyelitis unimmunized mouse plasma at 25 microg/L by LC-MS/MS analysis; assay type: ADME; details: dose 25 µg/L
[23] = system: Mus musculus; experiment: Antiinflammatory activity LPS induced mouse model assessed as reduction in IL-5 at 1 to 5 mg/kg, ip preincubated for 1 hr followed by LPS stimulation and measured after 2 hrs by luminex xMAP bead based assay; assay type: functional, organism-based; details: dose 1-5 mg/kg, time 3.0 hrs
[24] = Tmax in Wistar rat plasma at 2 mg/kg, iv administered as bolus dose measured after 5 to 360 mins by LC-MS/MS analysis; assay type: ADME, organism-based; details: time 5-360 min
[25] = Half life in C57BL/6 mouse brain at 2 mg/kg, ip measured after 3 to 240 mins by LC-MS/MS analysis; assay type: ADME, organism-based; details: time 3-240 min
[26] = Drug uptake in MOG (35 to 55 residues)-induced experimental autoimmune encephalomyelitis immunized mouse in plasma at 50 microg/L by LC-MS/MS analysis; assay type: ADME; details: dose 50 µg/L
[27] = AUC in Wistar rat plasma at 5 mg/kg, ip administered as bolus dose measured after 5 to 360 mins by LC-MS/MS analysis; assay type: ADME, organism-based; set-up: dose 5 mg/kg, time upper 360 min, time lower 5 min, route ip
[28] = Clearance in C57BL/6 mouse plasma at 2 mg/kg, ip measured after 3 to 240 mins by LC-MS/MS analysis; assay type: ADME, organism-based; details: time 3-240 min
[29] = system: Mus musculus; experiment: Antiinflammatory activity LPS induced mouse model assessed as reduction in interferon gamma induced protein 10 at 1 to 5 mg/kg, ip preincubated for 1 hr followed by LPS stimulation and measured after 2 hrs by luminex xMAP bead based assay; assay type: functional, organism-based; details: dose 1-5 mg/kg, time 3.0 hrs
[30] = Drug uptake in MOG (35 to 55 residues)-induced experimental autoimmune encephalomyelitis mouse aerosol at 50 microg/L by LC-MS/MS analysis; assay type: ADME; details: in vivo, inhaled_or_intranasal, dose 50 µg/L
[31] = Bioavailability in rat at 0.06 mg/kg via inhalation; assay type: ADME, organism-based; details: in vivo, inhaled or intranasal, route inh
[32] = system: Rattus norvegicus; experiment: Antiinflammatory activity in carrageenan-induced paw edema rat model assessed as recovery of adverse effect at tremor at 5 mg/kg, ip or 20 mg/kg administered daily via whole body inhalation; assay type: functional, organism-based
[33] = AUC in Wistar rat plasma at 2 mg/kg, iv administered as bolus dose measured after 5 to 360 mins by LC-MS/MS analysis; assay type: ADME, organism-based; set-up: time lower 5 min, dose 2 mg/kg, time upper 360 min, route iv
[34] = Bioavailability in rat at 2.73 mg/kg via inhalation; assay type: ADME, organism-based; details: in vivo, inhaled or intranasal, route inh
[35] = system: Mus musculus; experiment: Antiinflammatory activity LPS induced mouse model assessed as reduction in IL-1 beta at 1 to 5 mg/kg, ip preincubated for 1 hr followed by LPS stimulation and measured after 2 hrs by luminex xMAP bead based assay; assay type: functional, organism-based; details: dose 1-5 mg/kg, time 3.0 hrs
[36] = Drug uptake in rat aerosol at medium dose via inhalation measured for 30 mins; assay type: ADME; details: in vivo, inhaled_or_intranasal, 0.5 h, route inh
[37] = Drug concentration in carrageenan-induced paw edema in rat respiratory tract at 254.3 microg/L via inhalation measured for 60 mins; assay type: ADME; details: inhaled or intranasal, route inh, dose 254.3 µg/L, read-out: Drug uptake

Structure (SMILES): C1=CCC(c2cccnc2)NC1 (configuration not stated)
- Activity [1]: Active
- Activity [2]: 39.6%
- Activity [3]: 46.1%
- Activity [4]: 47.2%
- Activity [5]: Dde
- Activity [6]: 1.1
- CL [7]: 0.00811 mL/min/kg
- Activity [8]: Active
- AUC [9]: 430 ng·h/mL
- Drug uptake [10]: 250 µg/L
- Activity [11]: Active
- Tmax [12]: 7.2 min
- Tmax [13]: 1.8 min
- half-life [14]: 218 min
- Vd [15]: 1.23 L/kg
- AUC [16]: 3060 ng·h/mL
- Cmax [17]: 2730 ng/mL
- concentration at 0.5 h [18]: 0.87 ng/mL
- Activity [19]: Active
- Cmax [20]: 1370 ng/mL
- half-life [21]: 83.4 min
- Cp [22]: 531.5 ng/mL
- Activity [23]: Active
- Tmax [24]: 9.6 min
- half-life [25]: 21.6 min
- Cp [26]: 1139.7 ng/mL
- AUC [27]: 6820 ng·h/mL
- CL/F [28]: 78.6 mL/min/kg
- Activity [29]: Active
- Drug uptake [30]: 50.6 ng/mL
- bioavailability [31]: 76.5%
- Activity [32]: Active
- AUC [33]: 2730 ng·h/mL
- bioavailability [34]: 56.4%
- Activity [35]: Active
- Drug uptake [36]: 25 µg/L
- concentration at 1 h [37]: 5.34 ng/mL
